Assay results published in patent publication US20130252944A1, “NOVEL FUSED PYRAZOLE DERIVATIVES AND THEIR USE AS ALLOSTERIC MODULATORS OF METABOTROPIC GLUTAMATE RECEPTORS” (priority 2010, published 2013).

The compounds below were run against T1, recombinant human mGluR4a receptors (Homo sapiens, UniProt Q14833) (assay: Fluorescent cell based Ca2+ mobilization assay (FLIPR) on HEK-293 cells expressing human mGluR4). Settings: positive allosteric modulation in presence of EC25 glutamate; HEK-293 hmGluR4; mean of at least three independent experiments in duplicate; read-out: Ca^2+ Flux (mean EC50).
T1 construct: expressed in transfected cells
Excerpt: mGluR4 Assay on HEK-Expressing Human mGluR4
The compounds of the present invention are positive allosteric modulators of mGluR4 receptor. Their activity was examined on recombinant human mGluR4a receptors by detecting changes in intracellular Ca^2+concentration, using the fluorescent Ca^2+-sensitive dye Fluo4-(AM) and a Fluorometric Imaging Plate Reader (FLIPR, Molecular Devices, Sunnyvale, Calif.).
The cDNA encoding the human metabotropic glutamate receptor (hmGluR4), (accession number NM_000841.1, NCBI Nucleotide database browser), was subcloned into an expression vector containing also the hygromycin resistance gene. In parallel, the cDNA encoding a G protein allowing redirection of the activation signal to intracellular calcium flux was subcloned into a different expression vector containing also the puromycin resistance gene. Transfection of both these vectors into HEK293 cells with PolyFect reagent (Qiagen) according to supplier's protocol, and hygromycin and puromycin treatment allowed selection of antibiotic resistant cells which had integrated stably one or more copies of the plasmids. Positive cellular clones expressing hmGluR4 were identified in a functional assay measuring changes in calcium fluxes in response to glutamate or selective known mGluR4 orthosteric agonists and antagonists.
HEK-293 cells expressing hmGluR4 were maintained in media containing DMEM, dialyzed Fetal Calf Serum (10%), Glutamax™ (2 mM), Penicillin (100 units/mL), Streptomycin (100 μg/mL), Geneticin (100 μg/mL) and Hygromycin-B (40 μg/mL) and puromycin (1 μg/mL) at 37° C./5% CO2.
Human mGluR4 HEK-293 cells were plated out 24 hours prior to FLIPR^384 assay in black-walled, clear-bottomed, poly-L-ornithine-coated 384-well plates at a density of 25,000 cells/well in a glutamine/glutamate free DMEM medium containing foetal bovine serum (10%), penicillin (100 units/mL) and streptomycin (100 μg/mL) at 37° C./5% CO2.
On the day of the assay, the medium was aspirated and the cells were loaded with a 3 μM solution of Fluo4-AM (LuBioScience, Lucerne, Switzerland) in 0.03% pluronic acid. After 1 hour at 37° C./5% CO2, the non incorporated dye was removed by washing cell plate with the assay buffer and the cells were left in the dark at room temperature for […] before testing. All assays were performed in a pH=7.4 buffered-solution containing 20 mM HEPES, 143 mM NaCl, 6 mM KCl, 1 mM MgSO4, 1 mM CaCl2, 0.125 mM sulfapyrazone and 0.1% glucose.
After 10 s of basal fluorescence recording, various concentrations of the compounds of the invention were added to the cells. Changes in fluorescence levels were first monitored for 180 s in order to detect any agonist activity of the compounds. Then the cells were stimulated by an EC25 glutamate concentration for an additional 110 s in order to measure enhancing activities of the compounds of the invention. EC25 glutamate concentration is the concentration giving 25% of the maximal glutamate response.
The concentration-response curves of representative compounds of the present invention were generated using the Prism GraphPad software (Graph Pad Inc, San Diego, USA). The curves were fitted to a four-parameter logistic equation:
(Y=Bottom+(Top−Bottom)/(1+10̂((LogEC50−X)*Hill Slope)
allowing the determination of EC50 values.
The Table 3 below represents the mean EC50 obtained from at least three independent experiments of selected molecules performed in duplicate.

T1 sequence (Q14833 33-912): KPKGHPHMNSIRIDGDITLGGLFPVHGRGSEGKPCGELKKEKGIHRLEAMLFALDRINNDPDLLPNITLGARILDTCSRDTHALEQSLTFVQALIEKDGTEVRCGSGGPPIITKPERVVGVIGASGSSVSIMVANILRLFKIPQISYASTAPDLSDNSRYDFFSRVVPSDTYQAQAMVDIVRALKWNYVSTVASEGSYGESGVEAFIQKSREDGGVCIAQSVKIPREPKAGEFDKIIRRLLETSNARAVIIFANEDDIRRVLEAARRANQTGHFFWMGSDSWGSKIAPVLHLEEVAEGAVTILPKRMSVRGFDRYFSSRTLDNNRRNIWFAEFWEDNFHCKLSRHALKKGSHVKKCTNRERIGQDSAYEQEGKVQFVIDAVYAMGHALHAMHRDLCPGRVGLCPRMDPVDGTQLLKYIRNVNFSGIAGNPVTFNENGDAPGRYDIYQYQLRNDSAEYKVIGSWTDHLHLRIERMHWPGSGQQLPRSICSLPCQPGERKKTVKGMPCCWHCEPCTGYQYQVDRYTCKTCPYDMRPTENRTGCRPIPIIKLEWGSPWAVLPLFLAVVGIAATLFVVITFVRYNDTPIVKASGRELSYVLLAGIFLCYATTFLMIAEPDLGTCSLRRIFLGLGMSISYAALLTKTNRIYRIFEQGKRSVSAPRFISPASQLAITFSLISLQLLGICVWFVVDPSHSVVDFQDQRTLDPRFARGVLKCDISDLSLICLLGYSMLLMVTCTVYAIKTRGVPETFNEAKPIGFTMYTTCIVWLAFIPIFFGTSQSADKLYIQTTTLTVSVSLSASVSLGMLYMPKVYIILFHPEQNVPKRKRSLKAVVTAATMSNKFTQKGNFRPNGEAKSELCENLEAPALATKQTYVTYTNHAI

EC50 [nM]	Compound
1000 to 10000	Cc1cc2[nH]ncc2c2nc(Nc3ccccn3)sc12 [Compound 1-1, (4-Methyl-6H-3-thia-1,6,7-triaza-as-indacen-2-yl)-pyridin-2-yl-amine]
1000 to 10000	Cc1ccnc(Nc2nc3c(s2)C(C)(C)OC(C)c2n[nH]cc2-3)n1 (stereo not shown) [Compound 1-2, (4-Methyl-pyrimidin-2-yl)-(4,4,6-trimethyl-6,8-dihydro-4H-5-oxa-3-thia-1,7,8-triaza-cyclopenta[e]azulen-2-yl)-amine]
100 to 1000	Cc1ccnc(Nc2nc3c(s2)CCC(O)c2[nH]ncc2-3)n1 (stereo not shown) [Compound 1-3, 2-(4-Methyl-pyrimidin-2-ylamino)-4,5,6,7-tetrahydro-3-thia-1,7,8-triaza-cyclopenta[e]azulen-6-ol]
100 to 1000	Cc1ccnc(Nc2nc3c(s2)C(C)(C)OCc2n[nH]cc2-3)n1 [Compound 1-4, (4,4-Dimethyl-6,8-dihydro-4H-5-oxa-3-thia-1,7,8-triaza-cyclopenta[e]azulen-2-yl)-(4-methyl-pyrimidin-2-yl)-amine]
100 to 1000	CCCC1Cc2sc(Nc3nccc(C)n3)nc2-c2cn[nH]c21 (stereo not shown) [Compound 1-5, (4-Methyl-pyrimidin-2-yl)-(5-propyl-5,6-dihydro-4H-3-thia-1,6,7-triaza-as-indacen-2-yl)-amine]
100 to 1000	Cc1ccnc(Nc2nc3c(s2)CCCCc2[nH]ncc2-3)n1 [Compound 1-7, (4-Methyl-pyrimidin-2-yl)-(5,6,7,8-tetrahydro-4H-3-thia-1,8,9-triaza-dicyclopenta[a,c]cycloocten-2-yl)-amine]
< 100	CCC1OCc2sc(Nc3nccc(C)n3)nc2-c2c[nH]nc21 (stereo not shown) [Compound 1-8, (6-Ethyl-6,8-dihydro-4H-5-oxa-3-thia-1,7,8-triaza-cyclopenta[e]azulen-2-yl)-(4-methyl-pyrimidin-2-yl)-amine]
100 to 1000	Cc1ccnc(Nc2nc3c(s2)CC(C)(C)C(F)(F)c2[nH]ncc2-3)n1 [Compound 1-9, (6,6-Difluoro-5,5-dimethyl-4,5,6,7-tetrahydro-3-thia-1,7,8-triaza-cyclopenta[e]azulen-2-yl)-(4-methyl-pyrimidin-2-yl)-amine]
< 100	Cc1ccnc(Nc2nc3c(s2)COC(C)(C)c2n[nH]cc2-3)n1 [Compound 1-10, (6,6-Dimethyl-6,8-dihydro-4H-5-oxa-3-thia-1,7,8-triaza-cyclopenta[e]azulen-2-yl)-(4-methylpyrimidin-2-yl)-amine]
100 to 1000	Cc1ccnc(Nc2nc3c(s2)CC(C)Cc2n[nH]cc2-3)n1 (stereo not shown) [Compound 1-11, (4-Methyl-pyrimidin-2-yl)-(5-methyl-4,5,6,8-tetrahydro-3-thia-1,7,8-triaza-cyclopenta[e]azulen-2-yl)-amine]
< 100	Cc1ccnc(Nc2nc3c(s2)CCC(C)c2n[nH]cc2-3)n1 (stereo not shown) [Compound 1-12, (4-Methyl-pyrimidin-2-yl)-(6-methyl-4,5,6,8-tetrahydro-3-thia-1,7,8-triaza-cyclopenta[e]azulen-2-yl)-amine]
< 100	Cc1ccnc(Nc2nc3c(s2)COC(C(F)(F)F)c2n[nH]cc2-3)n1 (stereo not shown) [Compound 1-13, (4-Methyl-pyrimidin-2-yl)-(6-trifluoromethyl-6,8-dihydro-4H-5-oxa-3-thia-1,7,8-triaza-cyclopenta[e]azulen-2-yl)-amine]
< 100	COc1ccnc(Nc2nc3c(s2)COC(C)c2[nH]ncc2-3)n1 (stereo not shown) [Compound 1-14, (4-Methoxy-pyrimidin-2-yl)-(6-methyl-6,7-dihydro-4H-5-oxa-3-thia-1,7,8-triaza-cyclopenta[e]azulen-2-yl)-amine]
100 to 1000	COC1Cc2n[nH]cc2-c2nc(Nc3nccc(C)n3)sc2C1 (stereo not shown) [Compound 1-15, (5-Methoxy-4,5,6,8-tetrahydro-3-thia-1,7,8-triaza-cyclopenta[e]azulen-2-yl)-(4-methyl-pyrimidin-2-yl)-amine]
< 100	Cc1ccnc(Nc2nc3c(s2)COC(C(C)C)c2n[nH]cc2-3)n1 (stereo not shown) [Compound 1-16, (6-Isopropyl-6,8-dihydro-4H-5-oxa-3-thia-1,7,8-triaza-cyclopenta[e]azulen-2-yl)-(4-methyl-pyrimidin-2-yl)-amine]
< 100	Cc1ccnc(Nc2nc3c(s2)CCOc2n[nH]cc2-3)n1 [Compound 1-17, (4,8-Dihydro-5H-6-oxa-3-thia-1,7,8-triaza-cyclopenta[e]azulen-2-yl)-(4-methyl-pyrimidin-2-yl)-amine]
< 100	Cc1ccnc(Nc2nc3c(s2)CC(F)(F)Cc2n[nH]cc2-3)n1 [Compound 1-18, (5,5-Difluoro-4,5,6,8-tetrahydro-3-thia-1,7,8-triaza-cyclopenta[e]azulen-2-yl)-(4-methyl-pyrimidin-2-yl)-amine]
< 100	CCC1OCc2sc(Nc3ncc(F)cn3)nc2-c2c[nH]nc21 (stereo not shown) [Compound 1-19, (6-Ethyl-6,8-dihydro-4H-5-oxa-3-thia-1,7,8-triaza-cyclopenta[e]azulen-2-yl)-(5-fluoro-pyrimidin-2-yl)-amine]
< 100	CCC1OCc2sc(Nc3nsc(C)n3)nc2-c2c[nH]nc21 (stereo not shown) [Compound 1-20, (6-Ethyl-6,8-dihydro-4H-5-oxa-3-thia-1,7,8-triaza-cyclopenta[e]azulen-2-yl)-(5-methyl-[1,2,4]thiadiazol-3-yl)-amine]
< 100	CCC1OCc2sc(Nc3ncc(F)c(C)n3)nc2-c2cn[nH]c21 (stereo not shown) [Compound 1-21, (6-Ethyl-6,7-dihydro-4H-5-oxa-3-thia-1,7,8-triaza-cyclopenta[e]azulen-2-yl)-(5-fluoro-4-methyl-pyrimidin-2-yl)-amine]
< 100	CCC1OCc2sc(Nc3nccc(OC)n3)nc2-c2cn[nH]c21 (stereo not shown) [Compound 1-22, (6-Ethyl-6,7-dihydro-4H-5-oxa-3-thia-1,7,8-triaza-cyclopenta[e]azulen-2-yl)-(4-methoxy-pyrimidin-2-yl)-amine]
< 100	CC1OCc2sc(Nc3cccc(F)n3)nc2-c2c[nH]nc21 (stereo not shown) [Compound 1-23, (6-Fluoro-pyridin-2-yl)-(6-methyl-6,8-dihydro-4H-5-oxa-3-thia-1,7,8-triaza-cyclopenta[e]azulen-2-yl)-amine]
< 100	COC1CCc2sc(Nc3nccc(C)n3)nc2-c2cn[nH]c21 (stereo not shown) [Compound 1-24, (6-Methoxy-4,5,6,7-tetrahydro-3-thia-1,7,8-triaza-cyclopenta[e]azulen-2-yl)-(4-methyl-pyrimidin-2-yl)-amine]
100 to 1000	CC(C)C1OCc2sc(Nc3cccc(F)n3)nc2-c2cn[nH]c21 (stereo not shown) [Compound 1-26, (6-Fluoro-pyridin-2-yl)-(6-isopropyl-6,7-dihydro-4H-5-oxa-3-thia-1,7,8-triaza-cyclopenta[e]azulen-2-yl)-amine]
100 to 1000	Cc1ccnc(Nc2nc3c(s2)CCC(C(F)(F)F)c2[nH]ncc2-3)n1 (stereo not shown) [Compound 1-27, (4-Methyl-pyrimidin-2-yl)-(6-trifluoromethyl-4,5,6,7-tetrahydro-3-thia-1,7,8-triaza-cyclopenta[e]azulen-2-yl)-amine]
< 100	CC(C)C1OCc2sc(Nc3ncc(F)cn3)nc2-c2cn[nH]c21 (stereo not shown) [Compound 1-28, (5-Fluoro-pyrimidin-2-yl)-(6-isopropyl-6,7-dihydro-4H-5-oxa-3-thia-1,7,8-triaza-cyclopenta[e]azulen-2-yl)-amine]
100 to 1000	Cc1nc(Nc2nc3c(s2)COC(C(C)C)c2[nH]ncc2-3)ncc1F (stereo not shown) [Compound 1-29, (5-Fluoro-4-methyl-pyrimidin-2-yl)-(6-isopropyl-6,7-dihydro-4H-5-oxa-3-thia-1,7,8-triaza-cyclopenta[e]azulen-2-yl)-amine]
1000 to 10000	Cc1nc(Nc2nc3c(s2)C(=O)CCc2n[nH]cc2-3)ncc1F [Compound 1-30, 2-(5-Fluoro-4-methyl-pyrimidin-2-ylamino)-6,8-dihydro-5H-3-thia-1,7,8-triaza-cyclopenta[e]azulen-4-one]
